IC50 and AC50 data for 13 molecules are collected here from US20240002375A1, “2-(INDAZOL-5-YL)-6-(PIPERIDIN-4-YL)-1,7-NAPHTHYRIDINE DERIVATIVES AND RELATED COMPOUNDS AS MODULATORS FOR SPLICING NUCLEIC ACIDS AND FOR THE TRE” (REMIX THERAPEUTICS INC., priority 2020, published 2024).

Bounds are passed on as bounds.

Holding throughout (type): cell-based
The subject of assay [1] is Target C CJ mRNA. Nature of the assay: Gene panel canonical junction qPCR splicing assay, Target C. The conditions noted are these: Table 4, read-out: Target C IC50 (decrease in CJ mRNA levels). The protocol:
(§1) Compounds described herein were used to modulate RNA transcript abundance in cells. The expression of a target mRNA was measured by detecting the formation of an exon-exon junction in the canonical transcript (CJ). A compound mediated exon-inclusion event was detected by observing an increase in formation of a new junction with an alternative exon (AJ). Real-time qPCR assays were used to detect these splicing switches and interrogate the potency of various compounds towards different target genes. A high-throughput real time quantitative PCR (RT-qPCR) assay was developed to measure these two isoforms of the mRNA (CJ and AJ) for an exemplary gene, HTT, together with a control housekeeping gene, GAPDH or GUSB or PPIA, used for normalization. Briefly, the A673 or K562 cell line was treated with various compounds described herein (e.g., compounds of Formula (I) or (II)). After treatment, the levels of the HTT mRNA targets were determined from each sample of cell lysate by cDNA synthesis followed by qPCR. The data analysis was performed by first determining the ΔCt vs the housekeeper gene. This ΔCt was then normalized against the DMSO control (ΔΔCt) and converted to RQ (relative quantification) using the 2^(−ΔΔCt) equation. The RQ were then converted to a percentage response by arbitrarily setting an assay window of 3.5 ΔCt for HTT-CJ and an assay window of 9 ΔCt for HTT-AJ. […] The percentage response was then fitted to the 4 parametric logistic equation to evaluate the concentration dependence of compound treatment. The increase in AJ mRNA is reported as AC50 (compound concentration having 50% response in AJ increase) while the decrease in CJ mRNA levels is reported as IC50 (compound concentration having 50% response in CJ decrease). Additional studies were carried out for a larger panel of genes using the protocol provided above. The junction between flanking upstream and downstream exons was used to design canonical junction qPCR assays. At least one of the forward primer, reverse primer or the CY5-labeled 5′ nuclease probe (with 3′ quencher such as ZEN/Iowa Black FQ) was designed to overlap with the exon junction to capture the CJ mRNA transcript. BLAST was used to confirm the specificity of the probeset and parameters such as melting temperature, GC content, amplicon size, and primer dimer formation are considered during their design. Data for the decrease in CJ mRNA levels for three exemplary genes (HTT, SMN2, and Target C) analyzed in this panel are reported as IC50 (compound concentration having 50% response in CJ decrease).

For assay [2], the system named is HTT mRNA. Nature of the assay: Splicing assay (RT-qPCR) of HTT mRNA alternative junction (AJ) and canonical junction (CJ). The conditions noted are these: A673 or K562 cells, 24 hours; for IC50: decrease in CJ mRNA, read-out: HTT CJ IC50; for AC50: increase in AJ mRNA, read-out: HTT AJ AC50. The protocol: Compounds described herein were used to modulate RNA transcript abundance in cells. The expression of a target mRNA was measured by detecting the formation of an exon-exon junction in the canonical transcript (CJ). A compound mediated exon-inclusion event was detected by observing an increase in formation of a new junction with an alternative exon (AJ). Real-time qPCR assays were used to detect these splicing switches and interrogate the potency of various compounds towards different target genes. A high-throughput real time quantitative PCR (RT-qPCR) assay was developed to measure these two isoforms of the mRNA (CJ and AJ) for an exemplary gene, HTT, together with a control housekeeping gene, GAPDH or GUSB or PPIA, used for normalization. Briefly, the A673 or K562 cell line was treated with various compounds described herein (e.g., compounds of Formula (I) or (II)). After treatment, the levels of the HTT mRNA targets were determined from each sample of cell lysate by cDNA synthesis followed by qPCR.
Materials: • Cells-to-CT 1-step kit: ThermoFisher A25602, Cells-to-CT lysis reagent: ThermoFisher 4391851C, TagMan™ Fast Virus 1-Step Master Mix: ThermoFisher 4444436 • GAPDH: VIC-PL, ThermoFisher 4326317E (Assay: Hs99999905_ml)—used for K562/suspension cell lines • GUSB: VIC-PL, ThermoFisher 4326320E (Assay: Hs99999908 ml)—used for K562/suspension cell lines • PPIA: VIC-PL, ThermoFisher 4326316E (Assay: Hs99999904 ml)—used for A673/adherent cell lines
The A673 cell line was cultured in DMEM with 10% FBS. Cells were diluted with full growth media and plated in a 96-well plate (15,000 cells in 100 ul media per well). The plate was incubated at 37° C. with 5% CO2 for 24 hours to allow cells to adhere. An 11-point 3-fold serial dilution of the compounds was made in DMSO then diluted in media in an intermediate plate. Compounds were transferred from the intermediate plate to the cell plate with the top dose at a final concentration of 10 uM in the well. Final DMSO concentration was kept at or below 0.25%. The cell plate was returned to the incubator at 37° C. with 5% CO2 for an additional 24 hours.
The K562 cell line was cultured in IMDM with 10% FBS. For K562, cells were diluted with full growth media and plated in either a 96-well plate (50,000 cells in 50 uL media per well) or a 384-well plate (8,000-40,000 cells in 45 uL media per well). An 11-point 3-fold serial dilution of the compounds were made in DMSO then diluted in media in an intermediate plate. Compound was transferred from the intermediate plate to the cell plate with the top dose at a final concentration of 10 uM in the well. Final DMSO concentration was kept at or below 0.25%. Final volume was 100 uL for 96-well plate and 50 uL for 384-well plate. The cell plate was then placed in an incubator at 37° C. with 5% CO2 for 24 hours.
The cells were then gently washed with 50 uL-100 uL cold PBS before proceeding to addition of lysis buffer. 30 uL-50 uL of room temperature lysis buffer with DNAse I (and optionally RNAsin) was added to each well. Cells were shaken/mixed thoroughly at room temperature for 5-10 minutes for lysis to take place and then 3 uL-5 uL of room temperature stop solution was added and wells were shaken/mixed again. After 2-5 minutes, the cell lysate plate was transferred to ice for RT-qPCR reaction setup. The lysates could also be frozen at −80° C. for later use.
In some cases, a direct lysis buffer was used. An appropriate volume of 3X lysis buffer (10 mM Tris, 150 mM NaCl, 1.5%-2.5% Igepal and 0.1-1 U/uL RNAsin, pH 7.4) was directly added to either K562 or A673 cells in media and mixed by pipetting 3 times. The plates were then incubated at room temperature with shaking/rocking for 20-50 minutes to allow for lysis to take place. After this time, the cell lysate plate was transferred to ice to set up for the RT-qPCR reactions. The lysates could also be frozen at −80° C. for later use. […]

In assay [3] the test system is HTT CJ mRNA. Kind of assay: Gene panel canonical junction qPCR splicing assay, HTT. The conditions noted are these: Table 4, read-out: HTT IC50 (decrease in CJ mRNA levels). The procedure:
as §1

In assay [4] the test system is SMN2 CJ mRNA. Kind of assay: Gene panel canonical junction qPCR splicing assay, SMN2. Conditions: Table 4, read-out: SMN2 IC50 (decrease in CJ mRNA levels). The procedure:
as §1

As to `Cc1nc2c(F)c(O)c(-c3ccc4nc(N5CC[C@H](NC6CC6)C5)ccc4n3)cc2o1` (single isomer, unassigned) [Compound 254, 6-{6-[3-(cyclopropylamino)pyrrolidin-1-yl]-1,5-naphthyridin-2-yl}-4-fluoro-2-methyl-1,3-benzoxazol-5-ol], the IC50 in assay [1], in assay [2], in assay [3] and in assay [4] was < 100 nM throughout. Also, the concentration at half-maximal activity (AC50) in assay [2] was < 100 nM.

`Cc1nc2c(F)c(O)c(-c3ccc4nc(N5CC[C@H](NC(C)(C)C)C5)ccc4n3)cc2o1` (single isomer, unassigned) [Compound 255, 6-{6-[3-(tert-butylamino)pyrrolidin-1-yl]-1,5-naphthyridin-2-yl}-4-fluoro-2-methyl-1,3-benzoxazol-5-ol]: the IC50 in assay [1], in assay [2], in assay [3] and in assay [4] was < 100 nM each time. For the same molecule, in assay [2], the AC50 is < 100 nM.

For the molecule `Cc1nc2c(F)c(O)c(-c3ccc4nc(N5CC[C@@H](NC(C)(C)C)C5)ccc4n3)cc2o1` (single isomer, unassigned) [Compound 256, 6-{6-[3-(tert-butylamino)pyrrolidin-1-yl]-1,5-naphthyridin-2-yl}-4-fluoro-2-methyl-1,3-benzoxazol-5-ol], the 50% inhibitory concentration (IC50) in assay [1], in assay [2], in assay [3] and in assay [4] was < 100 nM throughout. For the same molecule, the AC50 in assay [2] was < 100 nM.

`Cc1nc2cc(O)c(-c3ccc4nc(N5CC[C@H](NC6(C)CC6)C5)ccc4n3)cc2o1` (single isomer, unassigned) [Compound 257, 2-methyl-6-(6-{3-[(1-methylcyclopropyl)amino]pyrrolidin-1-yl}-1,5-naphthyridin-2-yl)-1,3-benzoxazol-5-ol]: the IC50 in assay [1], in assay [2], in assay [3] and in assay [4] was < 100 nM in each case. Also, the AC50 in assay [2] is < 100 nM.

As for `Cc1nc2cc(O)c(-c3ccc4nc(N5CC[C@@H](NC6(C)CC6)C5)ccc4n3)cc2o1` (single isomer, unassigned) [Compound 258, 2-methyl-6-(6-{3-[(1-methylcyclopropyl)amino]pyrrolidin-1-yl}-1,5-naphthyridin-2-yl)-1,3-benzoxazol-5-ol], the half-inhibitory concentration (IC50) in assay [1] is 100 to 1000 nM; in assay [2], < 100 nM; in assay [3], < 100 nM; in assay [4], < 100 nM. In addition, the half-maximal activity concentration (AC50) in assay [2] was < 100 nM.

Turning to `Cc1c(O)c(-c2ccc3nc(N4CC[C@@H](NC5CC5)C4)ccc3n2)cc2cn(C)nc12` (single isomer, unassigned) [Compound 259], the half-inhibitory concentration (IC50) in assay [1], in assay [2], in assay [3] and in assay [4] was < 100 nM in each case. Besides, in assay [2], the AC50 was < 100 nM.

In the case of `Cc1c(O)c(-c2ccc3nc(N4CC[C@H](NC5CC5)C4)ccc3n2)cc2cn(C)nc12` (single isomer, unassigned) [Compound 260], the IC50 in assay [1], in assay [2], in assay [3] and in assay [4] was < 100 nM throughout. The AC50 in assay [2] was < 100 nM.

On to `Cn1cc2cc(-c3ccc4nc(N5CC[C@H](NC6COC6)C5)ccc4n3)c(O)cc2n1` (stereo in doubt) [Compound 189], for which the 50% inhibitory concentration (IC50) in assay [1] was 1000 to 10000 nM; in assay [2] it was 1000 to 10000 nM; in assay [3] it was 1000 to 10000 nM; in assay [4], < 100 nM. For the same molecule, the half-maximal activity concentration (AC50) in assay [2] is 100 to 1000 nM.

For the molecule `Cn1cc2cc(-c3ccc4nc(N5CC[C@@H](NCC(F)(F)F)C5)ccc4n3)c(O)cc2n1` (stereo in doubt) [Compound 245], the half-inhibitory concentration (IC50) in assay [1] was > 10000 nM; in assay [2], > 10000 nM; in assay [3], > 10000 nM; in assay [4] it was 1000 to 10000 nM. Besides, the concentration at half-maximal activity (AC50) in assay [2] is > 10000 nM.

Turning to `Cn1cc2cc(-c3ccc4nc(C5CCNCC5)ccc4n3)c(O)cc2n1` [Compound 100, 2-methyl-5-[6-(piperidin-4-yl)-1,5-naphthyridin-2-yl]indazol-6-ol], the half-inhibitory concentration (IC50) in assay [1], in assay [2], in assay [3] and in assay [4] was < 100 nM each time. The AC50 in assay [2] was in the range of 100 to 1000 nM.

For the molecule `Cc1c(O)c(-c2ccc3nc(C4CCNCC4)ccc3n2)cc2cn(C)nc12` [Compound 101, 2,7-dimethyl-5-[6-(piperidin-4-yl)-1,5-naphthyridin-2-yl]indazol-6-ol], the IC50 in assay [1], in assay [2], in assay [3] and in assay [4] was < 100 nM each time. For the same molecule, the AC50 in assay [2] was < 100 nM.

Turning to `Cn1cc2cc(-c3ccc4nc(C5CCNCC5)ccc4n3)c(O)c(F)c2n1` [Compound 102, 7-fluoro-2-methyl-5-[6-(piperidin-4-yl)-1,5-naphthyridin-2-yl]indazol-6-ol], the half-maximal inhibitory concentration (IC50) in assay [1], in assay [2], in assay [3] and in assay [4] was < 100 nM each time. Further, the half-maximal activity concentration (AC50) in assay [2] is < 100 nM.

As to `Cc1cn2nc(-c3ccc4nc(C5CCNCC5)ccc4n3)c(O)cc2n1` [Compound 103, 2-methyl-6-[6-(piperidin-4-yl)-1,5-naphthyridin-2-yl]imidazo[1,2-b]pyridazin-7-ol], the IC50 in assay [1] was 1000 to 10000 nM; in assay [2] it was 100 to 1000 nM; in assay [3], 100 to 1000 nM; in assay [4] it was > 10000 nM. In addition, the half-maximal activity concentration (AC50) in assay [2] is 100 to 1000 nM.
